Values of other authors in patent US20080318335A1, “Transgenic Plant for Detecting Environmental Chemicals” (priority 2005, published 2008).

Tested on: GUS gene
Settings: tobacco including AhR vector; 5 nM 20-methylcholanthrene

In the case of 20-methylcholanthrene, the GUS gene expression is listed as “expressed”.
